Assays:
[1] = tested on: Colorado potato beetle, (Leptinotarsa decemlineata Say); test: Test E: sub-lethal treatments on adult Colorado potato beetles; format: in vivo; settings: for Total number of eggs: eggs collected daily for 20 days; for Mean number of viable larvae: larvae that developed to the pupal stage
Description: For evaluating the reproductive performance effects on Colorado potato beetle, (Leptinotarsa decemlineata Say), a colony of potato beetles was cultured in the laboratory on potato plants. The pupae were provided soil material to facilitate pupation. On emergence from the soil, the adult beetles were separated into different cages to avoid initial contact between the male and female beetles. Immediately afterwards, the sex of each adult beetle was determined, and each individual insect was placed in a Petri dish and fed with pieces of excised potato leaves, before being placed in a whole plant-containing test unit for treatment with a test compound solution. Each treatment consisted of twenty adult beetles of the same age (10 males and 10 females), and a pair consisting of a male and female was considered to be a replicate; thus there were 10 replicates per treatment.
Test solutions were prepared by diluting the test compound with acetone to provide the selected sub-lethal concentrations. Treatments included Compound 1 at 6.25 and 25 ppm as well as a control without test compound.
A 15 day-old potato plant with 2 to 3 leaves in a round peat pot was infested with 10 pairs of adult beetles, and the test solution was applied at a spray pressure of 310 kPa using a moving boom tunnel sprayer equipped with one Teejet nozzle, model 8003-EVS and calibrated at speed of 1 m/s and 345 kPa to deliver about 280 L/ha. A piece of filter paper was wrapped around the plant and covered the soil, and the spray nozzle was placed 40 cm above the top of potted plant unit so that the upper surface of the leaves was the only part of the plant contacted with the spray mixture.
After 24 h, one treated male and one treated female were transferred onto a covered container containing a potato plant to allow mating to occur. The test units were held in a growth chamber provided with 16 hours of light per day, 70% relative humidity and 20° C. Daily observations were made to record oviposition data. The eggs deposited by the females were collected daily and counted for 20 days. The collected eggs were then placed in a Petri dish lined with moistened paper filter to prevent dehydration, and maintained in an incubator at 20-24° C. with 16 hours of light per day, 70% relative humidity. The number of hatched eggs and the number of viable larvae that developed to the pupal stage were also recorded. The study was discontinued after the remaining unhatched eggs succumbed to fungal infections and high humidity.

[2] = tested on: green peach aphid (Myzus persicae Sulzer); test: Test B: nymph production by green peach aphid after 24 hours exposure on treated radish plants; format: in vivo; settings: for Living (%) / On plant (%): 1 DAT; for Living (%): all aphids alive 24 h after treatment; for On plant (%): all aphids on the treated plant; for No. of nymphs (mean ± SE): per adult
Description: For evaluating reproductive performance effects on green peach aphid (Myzus persicae Sulzer), each test unit consisted of a radish plant grown in a 6 cm×6 cm square pot infested with a mixed population (nymphs and adults) of green peach aphids from a laboratory-reared culture. Each plant was infested with about 100 aphids. Test solutions were prepared and sprayed on the test plants (2 plants per treatment) as described for TEST A. Treatments included Compound 1 at 100 and 500 ppm, Compound 2 at 4 and 6 ppm, and a control without test compound.
Aphids were kept on the treated plants for 24 hours, and then only adult aphids staying on the treated plant were transferred to untreated radish plants grown singly in a 6 cm×6 cm square pots. One test unit or one replicate consisted of a single adult aphid on a radish plant in a pot. The number of nymphs in each replicate was counted 4 and 6 days after treatment. At the higher concentration of each test compound a total of 45 replicates were used, and at the lower concentration of each test compound a total of 30 replicates were used. In addition, prior to transferring aphids singly to the untreated radish plants one day after treatment (1 DAT), the total number of aphids living and those remaining on the treated plant were counted.
The results are listed in Table B. Square-root transformation was done on the number of nymphs produced per adult (female) aphid, and the data were analyzed using analysis of variance (ANOVA) and Fisher's Least Significant Difference (LSD) tests for separation of means.

beet armyworm = test: Preliminary dose-response study on beet armyworm; format: in vivo, Spodoptera exigua; settings: beet armyworm adults; estimated from the dose-response curve (12.5, 25, 50 and 100 ppm)
Text: The sub-lethal concentrations or doses used in the various tests for the specific pest species and populations tested in the context of the present invention were estimated from multiple-rate, dose-finding tests to determine the control rates and activity break rates. […] Therefore, depending on the target pest species, either the LC50 or a suitable concentration between LC50 and LC20 was selected as the sub-lethal dose. The specific procedures used to select the respective doses are described in each Test.
Sub-lethal concentrations of Compound 1 on beet armyworm were defined based on a preliminary study using rates of 12.5, 25, 50 and 100 ppm.

[3] = tested on: cotton bollworm (Helicoverpa armigera Hübner); test: Test H: eggs laid and hatched by treated cotton bollworm adults; format: in vivo; settings: for No. of eggs hatched / No. of eggs laid: total; for No. of eggs hatched: counted daily for 10 DAT; for No. of eggs laid: counted daily for about 10 days
Text: For evaluating the reproductive performance effects on cotton bollworm (Helicoverpa armigera Hübner), each test unit consisted of one pair of adult (female and male) Helicoverpa armigera moths. To obtain the adult moths, male and female pupae of approximately the same age (±1 day) were placed in separate containers until adults emerged. After emergence, adult moths of about the same age (±1 day) were selected for testing. Ten adult moths of the same sex were placed in a cage containing a potted cotton plant in a […] container covered with sleeve of fine-mesh polyester material. Then the cages were sprayed over the top with designated treatments of the test compounds using a CO2 sprayer fitted with a flat fan nozzle, calibrated to deliver about 200 mL (500 L/ha) of spray at a spray pressure of 207 kPa. The spray nozzle was placed 60 cm above the top of the cages.
Sub-lethal rates of Compound 1 on cotton bollworm were estimated based on a preliminary dose-response curve using rates of 10, 25, 50, 80 and 100 ppm. […] Three treatments consisted of test solutions containing Compound 1 at 10, 20 and 30 ppm as well as a control sprayed with water without test compound.
The treated adult moths were transferred individually into a clean container made of a clear plastic cup covered with cloth and supplied with a cotton wick soaked in 10% sucrose solution as adult diet source. Each treatment used 10 adult females and 10 adult males (i.e. 10 replicates per treatment). One day after treatment, a pair of treated adults (male and female) were placed together in a cage made of a 300 mL clear plastic cup with screened cloth cover and containing a source of adult diet, allowing the moths to copulate. Each pair of moths was transferred to a new cup daily. The number of eggs laid was counted daily for about 10 days (which is the period during which female moths typically produce viable eggs) and totaled. To evaluate the viability of eggs, the copulation cages containing eggs were stored in a growth chamber at 24-27° C. with 14 hours of light per day and 70% relative humidity.

Compound: CNC(=O)c1cc(Cl)cc(C)c1NC(=O)c1cc(Br)nn1-c1ncccc1Cl [Compound 1, 3-bromo-N-[4-chloro-2-methyl-6-[(methylamino)carbonyl]phenyl]-1-(3-chloro-2-pyridinyl)-1H-pyrazole-5-carboxamide]
- fecundity and fertility data versus control ([1]; 6.25 and 25 ppm): not significantly different from the control
- Mean number of hatched eggs ([1]; 6.25 ppm): 188
- Total number of eggs ([1]; 6.25 ppm): 271
- Mean number of viable larvae ([1]; 6.25 ppm): 95
- Mean number of hatched eggs ([1]; 25 ppm): 219
- Total number of eggs ([1]; 25 ppm): 287
- Mean number of viable larvae ([1]; 25 ppm): 117
- Living (%) ([2]; 100 ppm): 99.9%
- On plant (%) ([2]; 100 ppm): 99.6%
- No. of nymphs (mean ± SE) ([2]; 100 ppm, 4 DAT): 3.5 ± 0.3 b
- No. of nymphs (mean ± SE) ([2]; 100 ppm, 6 DAT): 7.3 ± 0.4 a
- Living (%) ([2]; 500 ppm): 99.6%
- On plant (%) ([2]; 500 ppm): 99.9%
- No. of nymphs (mean ± SE) ([2]; 500 ppm, 4 DAT): 4.6 ± 0.3 a
- No. of nymphs (mean ± SE) ([2]; 500 ppm, 6 DAT): 8.1 ± 0.5 a
- LC20 (beet armyworm): 12.5 ppm
- LC50 (beet armyworm): 20 ppm
- LC80 (beet armyworm): 31 ppm
- number of eggs hatched as compared to controls ([3]; 10, 20 and 30 ppm): progressively substantially decrease the number of eggs hatched
- number of eggs laid as compared to controls ([3]; 10, 20 and 30 ppm): did not consistently reduce the number of eggs laid
- No. of eggs hatched ([3]; 10 ppm): 977
- No. of eggs laid ([3]; 10 ppm): 3412
- No. of eggs hatched ([3]; 20 ppm): 778
- No. of eggs laid ([3]; 20 ppm): 1180
- No. of eggs hatched ([3]; 30 ppm): 84
- No. of eggs laid ([3]; 30 ppm): 4920
